Data published in patent publication US20070049564A1 (Wyeth, priority 2005, published 2007).
In brackets after ≈: the same amount, converted by molar mass. Where two headings read alike, the source gives them in different places.

Tests used:
E. coli GC 2271 = test: MIC, broth microdilution; conditions: Escherichia coli
S. agalactiae GC 4564 = test: MIC, broth microdilution; conditions: Streptococcus agalactiae
S. pyogenes GC 4563 = test: MIC, broth microdilution; conditions: Streptococcus pyogenes
S. aureus GC 4536 = test: MIC, broth microdilution; conditions: Staphylococcus aureus
E. coli GC 2232 = test: MIC, broth microdilution; conditions: Escherichia coli
S. aureus GC 2216 = test: MIC, broth microdilution; conditions: Staphylococcus aureus
Staph. aureus Smith = test: In vivo activity (oral, iv; ED50) against Staph. aureus Smith in mice
Method: Representative examples of compounds of Formula I were tested for the oral efficacy using S. aureus Smith in mice.

S. pneumoniae+ GC 4465 = test: MIC, broth microdilution; conditions: Streptococcus pneumoniae
Method: (§1) Antimicrobial susceptibility testing. The in vitro activities of the antibiotics are determined by the broth microdilution method as recommended by the National Committee for Clinical Laboratory Standards (NCCLS) (1). Mueller-Hinton II broth (MHBII)(BBL Cockeysville, Md.) is the medium employed in the testing procedures. Microtiter plates containing serial dilutions of each antimicrobial agent are inoculated with each organism to yield the appropriate density (10^5 CFU/ml) in a 100 μl final volume. The plates are incubated for 18-22 hours at 35° C. in ambient air.
Representative compounds were first incubated in mouse serum for an hour prior to the in vitro testing against a panel of selected gram-positive and gram-negative bacteria strains. All compounds were also pre-incubated in water for an hour prior to testing as control.

S. aureus GC 6335 = test: MIC, broth microdilution; conditions: Staphylococcus aureus
E. coli GC 2270 = test: MIC, broth microdilution; conditions: Escherichia coli
E. coli GC 3226 = test: MIC, broth microdilution; conditions: Escherichia coli
E. coli = test: Range of MIC for E. coli strains; conditions: Escherichia coli
E. faecalis GC 2242 = test: MIC, broth microdilution; conditions: Enterococcus faecalis
P. aeruginosa GC 2214 = test: MIC, broth microdilution; conditions: Pseudomonas aeruginosa
E. coli GC 4559 = test: MIC, broth microdilution; conditions: Escherichia coli
Method: as §1
Representative compounds were first incubated in mouse serum for an hour prior to the in vitro testing against a panel of selected gram-positive and gram-negative bacteria strains. All compounds were also pre-incubated in water for an hour prior to testing as control. Representative compounds of Formula I were incubated in human serum prior to MIC determination.

E. faecium GC 2243 = test: MIC, broth microdilution; conditions: Enterococcus faecium
E. faecalis GC 2265 = test: MIC, broth microdilution; conditions: Enterococcus faecalis
S. aureus GC 6469 = test: MIC, broth microdilution; conditions: Staphylococcus aureus
c. albicans GC 3066 = test: MIC, broth microdilution
E. coli GC 1073 = test: MIC, broth microdilution; conditions: Escherichia coli

## CCCCN(CC(=O)Nc1cc(N(C)C)c2c(c1O)C(=O)C1=C(O)[C@]3(O)C(=O)C(C(N)=O)=C(O)[C@@H](N(C)C)[C@@H]3C[C@@H]1C2)C(=O)OCOC(=O)c1ccc(-c2ccccc2)cc1 [Example 21, ({[(2-{[(5aR,6aS,7S,10aS)-9-(aminocarbonyl)-4,7-bis(dimethylamino)-1,8,10a,11-tetrahydroxy-10,12-dioxo-5,5a,6,6a,7,10,10a,12-octahydrotetracen-2-yl]amino}-2-oxoethyl)(butyl)amino]carbonyl}oxy)methyl 1,1′-biphenyl-4-carboxylate]
E. coli GC 2271; GC2271, read-out: MINIMAL INHIBITORY CONCENTRATION MIC, pre-incubated in Mouse Serum
  MIC: 0.5 µg/mL (≈ 0.595 µM)
E. coli GC 2271; GC2271, read-out: MINIMAL INHIBITORY CONCENTRATION MIC, pre-incubated in Water
  MIC: > 64 µg/mL
S. agalactiae GC 4564; GC4564, read-out: MINIMAL INHIBITORY CONCENTRATION MIC, pre-incubated in Mouse Serum
  MIC: 0.5 µg/mL (≈ 0.595 µM)
S. agalactiae GC 4564; GC4564, read-out: MINIMAL INHIBITORY CONCENTRATION MIC, pre-incubated in Water
  MIC: 8 µg/mL (≈ 9.52 µM)
S. pyogenes GC 4563; GC4563, read-out: MINIMAL INHIBITORY CONCENTRATION MIC, pre-incubated in Mouse Serum
  MIC: 0.25 µg/mL (≈ 0.298 µM)
S. pyogenes GC 4563; GC4563, read-out: MINIMAL INHIBITORY CONCENTRATION MIC, pre-incubated in Water
  MIC: 0.12 µg/mL (≈ 0.143 µM)
S. aureus GC 4536; GC4536, read-out: MINIMAL INHIBITORY CONCENTRATION MIC, pre-incubated in Mouse Serum
  MIC: 2 µg/mL (≈ 2.38 µM)
S. aureus GC 4536; GC4536, read-out: MINIMAL INHIBITORY CONCENTRATION MIC, pre-incubated in Water
  MIC: 32 µg/mL (≈ 38.1 µM)
E. coli GC 2232; GC2232, read-out: MINIMAL INHIBITORY CONCENTRATION MIC, pre-incubated in Mouse Serum
  MIC: 1 µg/mL (≈ 1.19 µM)
E. coli GC 2232; GC2232, read-out: MINIMAL INHIBITORY CONCENTRATION MIC, pre-incubated in Water
  MIC: > 64 µg/mL
S. aureus GC 2216; GC2216, read-out: MINIMAL INHIBITORY CONCENTRATION MIC, pre-incubated in Mouse Serum
  MIC: 1 µg/mL (≈ 1.19 µM)
S. aureus GC 2216; GC2216, read-out: MINIMAL INHIBITORY CONCENTRATION MIC, pre-incubated in Water
  MIC: 64 µg/mL (≈ 76.2 µM)
Staph. aureus Smith; Staphylococcus aureus, in Mus musculus, po, read-out: ED50 Staph Smith SOD
  ED50: > 32 mg/kg
Staph. aureus Smith; iv, read-out: ED50 Staph Smith SIV
  ED50: 0.77 mg/kg
S. pneumoniae+ GC 4465; read-out: MINIMAL INHIBITORY CONCENTRATION MIC, pre-incubated in Mouse Serum
  MIC: 4 µg/mL (≈ 4.76 µM)
S. pneumoniae+ GC 4465; read-out: MINIMAL INHIBITORY CONCENTRATION MIC, pre-incubated in Water
  MIC: 4 µg/mL (≈ 4.76 µM)
S. aureus GC 6335; GC6335, read-out: MINIMAL INHIBITORY CONCENTRATION MIC, pre-incubated in Mouse Serum
  MIC: 2 µg/mL (≈ 2.38 µM)
S. aureus GC 6335; GC6335, read-out: MINIMAL INHIBITORY CONCENTRATION MIC, pre-incubated in Water
  MIC: 64 µg/mL (≈ 76.2 µM)
E. coli GC 2270; GC2270, read-out: MINIMAL INHIBITORY CONCENTRATION MIC, pre-incubated in Mouse Serum
  MIC: 1 µg/mL (≈ 1.19 µM)
E. coli GC 2270; GC2270, read-out: MINIMAL INHIBITORY CONCENTRATION MIC, pre-incubated in Water
  MIC: > 64 µg/mL
E. coli GC 3226; GC3226, read-out: MINIMAL INHIBITORY CONCENTRATION MIC, pre-incubated in Mouse Serum
  MIC: 8 µg/mL (≈ 9.52 µM)
E. coli GC 3226; GC3226, read-out: MINIMAL INHIBITORY CONCENTRATION MIC, pre-incubated in Water
  MIC: > 64 µg/mL
E. coli; 20 h, read-out: Range of MIC, E. coli (Mouse Serum)
  MIC: 0.5 to 8 µg/mL (≈ 0.595 to 9.52 µM)
E. coli; read-out: Minimum inhibitory concentration (MIC), E. coli (mouse serum)
  MIC: 0.5 to 8 µg/mL (≈ 0.595 to 9.52 µM)
E. coli; read-out: Minimum inhibitory concentration (MIC), E. coli (water)
  MIC: > 64 µg/mL
E. coli; read-out: Range of MIC, E. coli (Water)
  MIC: > 64 µg/mL
E. faecalis GC 2242; GC2242, read-out: MINIMAL INHIBITORY CONCENTRATION MIC, pre-incubated in Mouse Serum
  MIC: 2 µg/mL (≈ 2.38 µM)
E. faecalis GC 2242; GC2242, read-out: MINIMAL INHIBITORY CONCENTRATION MIC, pre-incubated in Water
  MIC: 32 µg/mL (≈ 38.1 µM)
P. aeruginosa GC 2214; GC2214, read-out: MINIMAL INHIBITORY CONCENTRATION MIC, pre-incubated in Mouse Serum
  MIC: > 64 µg/mL
P. aeruginosa GC 2214; GC2214, read-out: MINIMAL INHIBITORY CONCENTRATION MIC, pre-incubated in Water
  MIC: > 64 µg/mL
E. coli GC 4559; GC4559, read-out: MINIMAL INHIBITORY CONCENTRATION MIC, pre-incubated in Mouse Serum
  MIC: 1 µg/mL (≈ 1.19 µM)
E. coli GC 4559; GC4559, read-out: MINIMAL INHIBITORY CONCENTRATION MIC, pre-incubated in Water
  MIC: > 64 µg/mL
E. faecium GC 2243; GC2243, read-out: MINIMAL INHIBITORY CONCENTRATION MIC, pre-incubated in Mouse Serum
  MIC: 0.5 µg/mL (≈ 0.595 µM)
E. faecium GC 2243; GC2243, read-out: MINIMAL INHIBITORY CONCENTRATION MIC, pre-incubated in Water
  MIC: 8 µg/mL (≈ 9.52 µM)
E. faecalis GC 2265; GC2265, read-out: MINIMAL INHIBITORY CONCENTRATION MIC, pre-incubated in Mouse Serum
  MIC: 1 µg/mL (≈ 1.19 µM)
E. faecalis GC 2265; GC2265, read-out: MINIMAL INHIBITORY CONCENTRATION MIC, pre-incubated in Water
  MIC: 64 µg/mL (≈ 76.2 µM)
S. aureus GC 6469; GC6469, read-out: MINIMAL INHIBITORY CONCENTRATION MIC, pre-incubated in Mouse Serum
  MIC: 4 µg/mL (≈ 4.76 µM)
S. aureus GC 6469; GC6469, read-out: MINIMAL INHIBITORY CONCENTRATION MIC, pre-incubated in Water
  MIC: > 64 µg/mL
c. albicans GC 3066; Candida albicans, GC3066, read-out: MINIMAL INHIBITORY CONCENTRATION MIC
  MIC: > 64 µg/mL
c. albicans GC 3066; pre-incubated in Water
  MINIMAL INHIBITORY CONCENTRATION MIC: >64 UG/ML
E. coli GC 1073; GC1073, read-out: MINIMAL INHIBITORY CONCENTRATION MIC, pre-incubated in Mouse Serum
  MIC: 1 µg/mL (≈ 1.19 µM)
E. coli GC 1073; GC1073, read-out: MINIMAL INHIBITORY CONCENTRATION MIC, pre-incubated in Water
  MIC: > 64 µg/mL
